Common to all, as to type: functional, cell-free
A short description of test [1]: Antioxidant activity against Cu2+-induced lipid peroxidation in human plasma LDL preincubated for 1 hr before Cu2+ challenge.
Test [2] in a line: Antioxidant activity against Cu2+-induced lipid peroxidation in human plasma LDL at 0.01 to 0.1 umol/L preincubated for 1 hr before Cu2+ challenge.
Test [3] in a line: Antioxidant activity against AAPH-induced lipid peroxidation in human plasma LDL at 0.01 to 0.1 umol/L preincubated for 1 hr before AAPH challenge.
Test [4] in a line: Antioxidant activity against AAPH-induced lipid peroxidation in human plasma LDL preincubated for 1 hr before AAPH challenge.
Test [5] can be described thus: Antioxidant activity against AAPH-induced lipid peroxidation in human plasma LDL at 0.2 umol/L preincubated for 1 hr before AAPH challenge.
Test [6] is described as follows: Antioxidant activity against AAPH-induced lipid peroxidation in human plasma LDL at 1 umol/L preincubated for 1 hr before AAPH challenge.

Activity calls are given as the source filed them. The calls are words filed in the database; no cut-off is given here.

As for `CC(=O)Oc1ccccc1C(=O)O`, in test [1], the result was inactive. On to VITAMIN E, for which, in test [1], the Activity turned out to be 7.2 µM/L. For the molecule `O=C(O)c1ccc(O)c(O)c1`, the outcome in test [2] and in test [3] was Active. Consider `O=C(O)/C=C/c1ccc(O)cc1`, for which, in test [1], the Activity amounted to 0.6 µM/L. `COc1cc(/C=C/C(=O)O)ccc1O`: the Activity in test [1] was 8.5 µM/L. Same read-out and setting: with `COc1cc(/C=C/C(=O)O)cc(OC)c1O` the figure was 47.4 µM/L; with `O=C(/C=C/c1ccc(O)c(O)c1)O[C@H](Cc1ccc(O)c(O)c1)C(=O)O`, 150 µM/L; with `O=C(/C=C/c1ccc(O)c(O)c1)OC(C(=O)O)C(O)C(=O)O` (stereo unspecified), 125 µM/L.

Take `O=C(/C=C/c1ccc(O)c(O)c1)O[C@@H]1C[C@](O)(C(=O)O)C[C@@H](O)[C@H]1O`: the Activity came out at 156 µM/L in test [1] and 55.3 µM/L in test [4]. Take `Oc1cc(O)c2c(c1)O[C@H](c1ccc(O)c(O)c1)[C@H](O)C2`: the Activity in test [1] is 37.1 µmol/L. Consider `O=C(O)c1cc(O)c(O)c(O)c1`, for which the Activity came out at 90 µM/L in test [5] and 30 µM/L in test [6]. Further, the outcome in test [2] and in test [3] was Active. As for `O=C(O)/C=C/c1ccc(O)c(O)c1`, the Activity is 54 µM/L in test [1] and 73.6 µM/L in test [4].

With `O=C(O)c1ccccc1O`, in test [1], the result was inactive. In the case of `Oc1cc(O)c2c(c1)OC(c1ccc(O)c(O)c1)C(O)C2` (stereo unspecified), the Activity was found to be 34.6 µM/L in test [1] and 156 µM/L in test [4].

These data come from ChEMBL document CHEMBL1137802, “Specific antioxidant activity of caffeoyl derivatives and other natural phenolic compounds: LDL protection against oxidation and decrease in the proinflammatory lysophosphatidylcholine production” (J Nat Prod, 2001).
